Assay results published in PubChem BioAssay (NCI).
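How tested: cells in 96-well plates exposed to compound for 48 hours at five concentrations. GI50 is the concentration that inhibits growth by half. TGI: concentration producing complete growth inhibition.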

Tests used:
Test in all cases: inhibition of tumour cell growth, NCI panel, 48 h
NCI-H226 lung = system: NCI-H226 lung
EKVX NSCLC = system: EKVX NSCLC
NCI-H23 lung = system: NCI-H23 lung
UACC-62 melanoma = system: UACC-62 melanoma
NCI/ADR-RES ovarian = system: NCI/ADR-RES ovarian
SK-MEL-2 melanoma = system: SK-MEL-2 melanoma
SNB-75 CNS = system: SNB-75 CNS
HL-60(TB) leukemia = system: HL-60(TB) leukemia
LOX IMVI melanoma = system: LOX IMVI melanoma
SK-MEL-28 melanoma = system: SK-MEL-28 melanoma

Which TGI (NCI-H226 lung) does the source give for O=C(/C=C/c1cccc(Br)c1)N1CCN(CCOC(c2ccccc2)c2ccccc2)CC1 here?
The TGI was > 100 µM.

And the TGI (EKVX NSCLC)?
The TGI was > 100 µM.

What about the TGI (NCI-H23 lung) of the same compound?
The TGI was > 100 µM.

And the TGI (UACC-62 melanoma)?
Its TGI is > 100 µM.

And the TGI (NCI/ADR-RES ovarian)?
The TGI was > 100 µM.

And the TGI (SK-MEL-2 melanoma)?
Its TGI is > 100 µM.

And the TGI (SNB-75 CNS)?
The TGI was > 100 µM.

And the TGI (HL-60(TB) leukemia)?
Its TGI is 46.6 µM.

And the TGI (LOX IMVI melanoma)?
The TGI was 54.8 µM.

What about the TGI (SK-MEL-28 melanoma) of the same compound?
The TGI was > 100 µM.

Which results are given for O=C(CC(=O)N1N=C(N(c2ccccc2)c2ccccc2)CC1c1ccccc1)Nc1cccc(Cl)c1 (stereo not drawn)?
TGI (NCI-H226 lung): > 100 µM; TGI (EKVX NSCLC): > 100 µM; TGI (NCI-H23 lung): > 100 µM; TGI (UACC-62 melanoma): > 100 µM; TGI (NCI/ADR-RES ovarian): > 100 µM; TGI (SK-MEL-2 melanoma): > 100 µM; TGI (SNB-75 CNS): > 100 µM; TGI (HL-60(TB) leukemia): > 100 µM; TGI (SK-MEL-28 melanoma): > 100 µM

What does the source list for CN(C)NC1=NS(=O)(=O)c2cc3c(=O)n(C)[nH]c3cc2S1?
TGI (NCI-H226 lung): > 10 µM; TGI (EKVX NSCLC): > 10 µM; TGI (NCI-H23 lung): > 10 µM; TGI (NCI/ADR-RES ovarian): > 10 µM; TGI (SK-MEL-2 melanoma): > 10 µM; TGI (SNB-75 CNS): > 10 µM; TGI (HL-60(TB) leukemia): > 10 µM; TGI (LOX IMVI melanoma): > 10 µM; TGI (SK-MEL-28 melanoma): > 10 µM

Which TGI (NCI-H226 lung) does the source give for NC(CSCSCC(N)C(=O)O)C(=O)O (stereo not drawn) here?
The TGI was > 225 µM.

And the TGI (EKVX NSCLC)?
Its TGI is > 225 µM.

And the TGI (NCI-H23 lung)?
Its TGI is > 225 µM.

What about the TGI (UACC-62 melanoma) of the same compound?
The TGI was > 225 µM.

What about the TGI (NCI/ADR-RES ovarian) of the same compound?
Its TGI is > 104 µM.

What about the TGI (SK-MEL-2 melanoma) of the same compound?
Its TGI is > 225 µM.

What about the TGI (SNB-75 CNS) of the same compound?
Its TGI is > 225 µM.

What about the TGI (HL-60(TB) leukemia) of the same compound?
The TGI was > 225 µM.

What about the TGI (LOX IMVI melanoma) of the same compound?
The TGI was > 225 µM.

And the TGI (SK-MEL-28 melanoma)?
Its TGI is > 225 µM.

With CN1CCN(c2n[nH]c(=O)c3c2nnn3C2CCCCC2)CC1 as the compound, how does the TGI (NCI-H226 lung) read?
Its TGI is > 100 µM.

What about the TGI (EKVX NSCLC) of the same compound?
The TGI was > 100 µM.

And the TGI (NCI-H23 lung)?
Its TGI is > 100 µM.

And the TGI (UACC-62 melanoma)?
Its TGI is > 100 µM.

What about the TGI (NCI/ADR-RES ovarian) of the same compound?
The TGI was > 100 µM.

What about the TGI (SK-MEL-2 melanoma) of the same compound?
The TGI was > 100 µM.

And the TGI (SNB-75 CNS)?
The TGI was > 100 µM.

And the TGI (HL-60(TB) leukemia)?
The TGI was > 100 µM.

What about the TGI (LOX IMVI melanoma) of the same compound?
The TGI was > 100 µM.

And the TGI (SK-MEL-28 melanoma)?
Its TGI is > 100 µM.

How did the TGI (NCI-H226 lung) turn out when Cc1cccc(N=N/C(=N\NC(=O)c2cc(Cl)ccc2O)c2ccc(N(CCC#N)CCC#N)cc2C)c1 was run?
Its TGI is > 100 µM.

What about the TGI (EKVX NSCLC) of the same compound?
Its TGI is > 100 µM.

What about the TGI (NCI-H23 lung) of the same compound?
Its TGI is > 100 µM.

What about the TGI (UACC-62 melanoma) of the same compound?
Its TGI is 84.6 µM.

And the TGI (NCI/ADR-RES ovarian)?
The TGI was > 100 µM.

And the TGI (SK-MEL-2 melanoma)?
The TGI was > 100 µM.

What about the TGI (SNB-75 CNS) of the same compound?
The TGI was > 100 µM.

What about the TGI (HL-60(TB) leukemia) of the same compound?
The TGI was 34.4 µM.

What about the TGI (LOX IMVI melanoma) of the same compound?
The TGI was > 100 µM.

What about the TGI (SK-MEL-28 melanoma) of the same compound?
Its TGI is > 100 µM.

Which results are given for COc1cc(OC)c(/C=N\Nc2nc3ccccc3c(=O)n2-c2ccccc2)c(OC)c1?
TGI (NCI-H226 lung): 44 µM; TGI (EKVX NSCLC): 63.7 µM; TGI (NCI-H23 lung): > 100 µM; TGI (UACC-62 melanoma): 55 µM; TGI (NCI/ADR-RES ovarian): 46.9 µM; TGI (SK-MEL-2 melanoma): 64 µM; TGI (SNB-75 CNS): > 100 µM; TGI (HL-60(TB) leukemia): > 100 µM; TGI (LOX IMVI melanoma): 69.6 µM; TGI (SK-MEL-28 melanoma): 87.2 µM

With COC(=O)C1Cc2cc3c(cc2C1)CCC3 as the compound, how does the TGI (NCI-H226 lung) read?
The TGI was > 100 µM.

What about the TGI (EKVX NSCLC) of the same compound?
The TGI was > 100 µM.

And the TGI (NCI-H23 lung)?
Its TGI is > 100 µM.

And the TGI (UACC-62 melanoma)?
The TGI was > 100 µM.

What about the TGI (NCI/ADR-RES ovarian) of the same compound?
The TGI was > 100 µM.

What about the TGI (SK-MEL-2 melanoma) of the same compound?
Its TGI is > 100 µM.

And the TGI (SNB-75 CNS)?
Its TGI is > 100 µM.

What about the TGI (HL-60(TB) leukemia) of the same compound?
The TGI was > 100 µM.

And the TGI (LOX IMVI melanoma)?
Its TGI is > 100 µM.

What about the TGI (SK-MEL-28 melanoma) of the same compound?
Its TGI is > 100 µM.

How did the TGI (NCI-H226 lung) turn out when NS(=O)(=O)c1ccc(NC(=O)c2ccc3nc4ccccc4c(Nc4ccc(S(N)(=O)=O)cc4)c3c2)cc1 was run?
Its TGI is > 100 µM.

And the TGI (EKVX NSCLC)?
Its TGI is > 100 µM.

And the TGI (NCI-H23 lung)?
The TGI was > 100 µM.

And the TGI (UACC-62 melanoma)?
Its TGI is > 100 µM.

What about the TGI (NCI/ADR-RES ovarian) of the same compound?
Its TGI is > 100 µM.

What about the TGI (SK-MEL-2 melanoma) of the same compound?
The TGI was > 100 µM.

What about the TGI (SNB-75 CNS) of the same compound?
Its TGI is > 100 µM.

What about the TGI (HL-60(TB) leukemia) of the same compound?
The TGI was > 100 µM.

What about the TGI (LOX IMVI melanoma) of the same compound?
The TGI was > 100 µM.

And the TGI (SK-MEL-28 melanoma)?
The TGI was > 100 µM.

Which results are given for C#CCNC(=O)CC[C@@H](C)[C@H]1CC[C@H]2[C@@H]3CC[C@@H]4CC(=O)CC[C@]4(C)[C@H]3CC[C@]12C?
GI50 (NCI-H226 lung): 14.8 µM; TGI (NCI-H226 lung): 36.2 µM; GI50 (EKVX NSCLC): 20.1 µM; TGI (EKVX NSCLC): 57.9 µM; GI50 (NCI-H23 lung): 19.6 µM; TGI (NCI-H23 lung): 75.7 µM; GI50 (UACC-62 melanoma): 9.02 µM; TGI (UACC-62 melanoma): 28.6 µM; GI50 (NCI/ADR-RES ovarian): 16.9 µM; TGI (NCI/ADR-RES ovarian): 45.3 µM; GI50 (SK-MEL-2 melanoma): 16.9 µM; TGI (SK-MEL-2 melanoma): 35.8 µM; GI50 (SNB-75 CNS): 10.9 µM; TGI (SNB-75 CNS): 33.5 µM; GI50 (HL-60(TB) leukemia): 3.47 µM; TGI (HL-60(TB) leukemia): 18 µM; GI50 (LOX IMVI melanoma): 17.5 µM; TGI (LOX IMVI melanoma): 39.8 µM; GI50 (SK-MEL-28 melanoma): 16.8 µM; TGI (SK-MEL-28 melanoma): 36 µM
